In patent US20100016232A1, “Treatment Of Inflammatory Diseases With Mammal Beta Defensins” (Novozymes A/S, priority 2008, published 2010):
Where no end group is shown, it is not given here.

What was measured:
[1] = test system: IL-23, human CD14+ monocyte-derived dendritic cells; assay: IL-23 in supernatants of human CD14+ monocyte-derived dendritic cells, ELISA; format: cell-based
Description: The DCs were prepared according to a modified protocol originally described by Romani et al. Briefly, peripheral blood mononuclear cells (PBMCs) were purified from buffy coats of healthy donors by centrifugation over a Ficoll-pague (GE-healthcare) gradient. Monocytes were isolated from PBMC by positive selection of CD14+ cells by magnetic beads (Dynal, Invitrogen) according to the manufacturer's instructions. The CD14+ monocytes were cultured in 6-well plates in RPMI/2% Human AB Serum recombinant human recombinant granulocyte-macrophage colony-stimulating factor (GM-CSF, 20 ng/ml) and IL-4 (20 ng/ml) (PeproTech) for 6 days, replenishing the medium/cytokines after 2 and 5 days.
Cell culture supernatants were collected and stored at −80° C. Amounts of IL-23 was measured by standard sandwich ELISA using commercially available antibodies and standards according to the manufacturer's protocols (eBioscience).

[2] = test system: IL-1β and IL-8 and IL-6, dendritic cells; assay: Cytokines from dendritic cells stimulated with a cytokine cocktail; format: cell-based, human; conditions: cytokine cocktail together with hBD2 vs cocktail alone, results not shown
Description: Obviously no effect on TNF could be analyzed, due to stimulation with TNF-α (results not shown).

[3] = test system: IL-1β secretion from PBMC; assay: IL-1β secretion from PBMC, ELISA; format: cell-based, human
Description: Peripheral blood was drawn from healthy volunteers (with approval from the relevant ethical committee in Denmark). Heparinized blood was diluted 1/1 v/v with RPMI and were subjected to Ficoll density centrifugation within 2 h of drawing. Plasma was collected from the top from individual donors and was kept on ice until it was used at 2% in the culture medium (autologous culture medium). Isolated PBMC were resuspended in autologous culture medium and seeded in 96-well culture plates with 255.000 cells per well in a total of 200 μl. […] The concentrations used for stimulation were optimized on 3 different donors in initial experiments, for LPS two different concentrations were used to be sure to be on a cytokine level that is possible to modulate. In some experiments PBMC were treated with Dexamethason and Indomethacin alone and together with LPS or LTA as a control on downregulation of inflammatory cytokines. The supernatants were collected after incubation at 37° C. for 24 hours, and stored at −80° C. until cytokine measurement. Viability was measured by Alamar Blue (Biosource, DALL 1100) in all experiments and in some cases also by MTS (Promega) according to manufacturer's instruction and was in some experiments also judged by counting of the cells by a Nucleocounter.
(§1) Cytokine production in supernatants was measured by flow cytometry with a human inflammation cytometric bead array (CBA) according to manufacturer's instructions (BD) on a FACSarray flow cytometer. The following cytokines were measured: IL-8, IL-1β, IL-10, TNF, IL-12 p70, IL-6. In some experiments, cytokines were measured by ELISA kits from R&D systems (IL-10, TNF-α, IL-1β) according to the manufacturer' instruction.
In Tables 6, 7 and 8, supernatants from another donor were analysed for cytokines by ELISA instead of by a cytometric bead array by flowcytometry and here the same were observed, although the sensitivity of the assay is lower and the detection limit much higher and therefore the effects were not as significant.

IL-10, dendritic cells = assay: IL-10 from dendritic cells (MUTZ-3 derived) stimulated with LPS or LTA; format: cell-based, human; conditions: dendritic cells stimulated with hBD2 and LPS or hBD2 and LTA; results not shown
Description: To generate a dendritoid cell line, the human myeloid leukaemia cell lines MUTZ-3 (1×10^5 cells/ml) was differentiated for 7 days in the presence of rhGM-CSF (150 ng/ml) and rhIL-4 (50 ng/ml) into immature DCs. Medium was exchanged every 2-3 days.
as §1

[4] = test system: TNF production in supernatant from a human monocyte cell line (MUTZ-3); assay: TNF production, human monocyte cell line MUTZ-3; format: cell-based
Description: The human myeloid leukaemia-derived cell line MUTZ-3 (DSMZ, Braunschweig, Germany) was maintained in a-MEM (Sigma M4526), supplemented with 20% [volume/volume (v/v)] fetal bovine serum (Sigma F6178) and 40 ng/ml rhGM-CSF (R&D Systems 215-GM-050).
as §1

**Q.** How did the IL-23 ([1]; LPS (100 ng/ml) and IFN-γ (20 ng/ml), hBD2 1 μg/ml) turn out when “hBD2: human beta defensin 2, SEQ ID NO:2; produced recombinantly in E. coli (Example 1); hBD2 of Tables 16-18 was prepared by chemical synthesis (GIGDPVTCLKSGAICHPVFCPRRYKQIGTCGLPGTKCCKKP; ends and bridges not checked; cysteine pairing not given here; listed as Homo sapiens)” was run?
**A.** 3833 pg/mL

**Q.** What about the IL-23 ([1]; LPS (100 ng/ml) and IFN-γ (20 ng/ml), hBD2 10 μg/ml) of the same substance?
**A.** 3308 pg/mL

**Q.** And the IL-23 ([1]; LPS (100 ng/ml) and IFN-γ (20 ng/ml), hBD2 30 μg/ml)?
**A.** 3042 pg/mL

**Q.** What about the IL-23 ([1]; LPS (100 ng/ml) and IFN-γ (20 ng/ml), hBD2 100 μg/ml) of the same substance?
**A.** 2145 pg/mL

**Q.** And the IL-23 ([1]; Unstimulated, hBD2 10 μg/ml)?
**A.** 451 pg/mL

**Q.** And the “IL-1β and IL-8 and IL-6” value [2]?
**A.** downregulating effect

**Q.** What about the IL-1β ([3]; LPS 0.6 ng/ml, hBD2 1 μg/ml) of the same substance?
**A.** 0.237 ng/mL

**Q.** What about the IL-1β ([3]; LPS 0.6 ng/ml, hBD2 10 μg/ml) of the same substance?
**A.** 0.268 ng/mL

**Q.** What about the IL-1β ([3]; LPS 0.6 ng/ml, hBD2 100 μg/ml) of the same substance?
**A.** 0.275 ng/mL

**Q.** What about the IL-1β ([3]; LPS 20 ng/ml, hBD2 1 μg/ml) of the same substance?
**A.** 0.638 ng/mL

**Q.** And the IL-1β ([3]; LPS 20 ng/ml, hBD2 10 μg/ml)?
**A.** 0.354 ng/mL

**Q.** And the IL-1β ([3]; LPS 20 ng/ml, hBD2 100 μg/ml)?
**A.** 0.395 ng/mL

**Q.** What about the IL-1β ([3]; LTA 1.25 μg/ml, hBD2 1 μg/ml) of the same substance?
**A.** 0.224 ng/mL

**Q.** And the IL-1β ([3]; LTA 1.25 μg/ml, hBD2 10 μg/ml)?
**A.** 0.193 ng/mL

**Q.** What about the IL-1β ([3]; LTA 1.25 μg/ml, hBD2 100 μg/ml) of the same substance?
**A.** 0.281 ng/mL

**Q.** And the IL-10 (IL-10, dendritic cells)?
**A.** induced

**Q.** And the TNF ([4]; LPS 1.5 μg/ml, hBD2 1 μg/ml)?
**A.** 6.61 pg/mL

**Q.** What about the TNF ([4]; LPS 1.5 μg/ml, hBD2 10 μg/ml) of the same substance?
**A.** 3.93 pg/mL

**Q.** What about the TNF ([4]; LPS 1.5 μg/ml, hBD2 100 μg/ml) of the same substance?
**A.** 3.93 pg/mL

**Q.** And the TNF ([4]; LTA 1.5 μg/ml, hBD2 1 μg/ml)?
**A.** 1.75 pg/mL

**Q.** And the TNF ([4]; LTA 1.5 μg/ml, hBD2 10 μg/ml)?
**A.** 3.76 pg/mL

**Q.** What about the TNF ([4]; LTA 1.5 μg/ml, hBD2 100 μg/ml) of the same substance?
**A.** 2.64 pg/mL

**Q.** And the TNF ([4]; Medium, hBD2 1 μg/ml)?
**A.** 2.21 pg/mL

**Q.** What about the TNF ([4]; Medium, hBD2 10 μg/ml) of the same substance?
**A.** 2.60 pg/mL

**Q.** What about the TNF ([4]; Medium, hBD2 100 μg/ml) of the same substance?
**A.** 0.00 pg/mL
